Test results reported in patent publication US6972287B1, “Method of inhibiting amyloid protein aggregation and imaging amyloid deposits” (Pfizer Inc., priority 1999, dated 2005).
Where “and” joins values, the source holds several entries; their conditions need not be identical. Identical values can stand only once. Counter-ions that a name gives are not always drawn.

Legend:
Type in all cases: biochemical
Aβ(1-40) [1] = molecular target: T1, Aβ(1-40) (Homo sapiens, UniProt P05067); assay: BASSR (Beta-Amyloid Self-Seeding Radioassay), inhibitors of self-seeded amyloid fibril growth
T1 construct: […]; purchased Bachem, Torrance, Calif
Method: BASSR (Beta-Amyloid Self-Seeding Radioassay)
(§1) An assay for inhibitors of self-seeded amyloid fibril growth
Assay Buffer—50 mM sodium phosphate, pH 7.5, 100 mM NaCl, 0.02% NaN3, 1 M urea (filter and store at 4° C.).
(§2) Typically, the solution should be stored until no lag phase is seen in the assay.
^125I-labeled Aβ(1-40)—150K-350K cpm/μL in 100% acetonitrile—0.1% trifluoroacetic acid (TFA)—1% β-mercaptoethanol (aliquots stored at −20° C.). ^125I-labeled Aβ(1-40) can be made in accordance with the procedure set forth by H. LeVine, III in Neurobiol. Aging, 16, 755, (1995), which is hereby incorporated by reference, or this reagent may be purchased from Amersham, Arlington Heights, Ill.
The following are the amounts of the components of the reaction mixture sufficient for 50 assay wells:
• 1) Prepare reaction mixture above by mixing components and storing on ice. • 2) Pipet 14.5 μL of reaction mixture into each of 50 wells on a polypropylene U-bottom 96-well microtiter plate on ice. (Costar 3794). • 3) Add 1.7 μL of diluted compound to be tested to each well in a column of eight, including solvent control. Serial 3-fold dilutions from 1 mM (100 μM final) in assay buffer−urea=7 dilutions+zero. Each 96-well plate can therefore accommodate 11 samples+1 Congo Red control (0.039-5 μM final in 2-fold steps). • 4) Seal the plate with aluminum film (Beckman 538619) and incubate for 10 minutes on ice. • 5) Raise the temperature to 37° C. and incubate for 3 to 5 hours (depending on the lot of the peptide). • 6) Remove the aluminum film and add 200 μL/well of ice cold assay buffer with urea, collecting the radiolabeled fibrils by vacuum filtration through 0.2 μm pore size GVWP filters in 96-well plates (Millipore MAGV N22, Bedford, Mass.). Determine the radioactivity of the filters using standard methods well-known to those skilled in the art. BASST (Beta-Amyloid Self-Seeding, Thioflavin T)

Aβ(1-40) [2] = molecular target: T1, Aβ(1-40); assay: BASST (Beta-Amyloid Self-Seeding, Thioflavin T), inhibitors of self-seeded amyloid fibril growth; details: read-out: BASST (IC50 = μM)
Method: as §1
Assay Buffer—50 mM sodium phosphate, pH 7.5, 100 mM NaCl, 0.02% NaN3, 1 M urea (filter and store at 4° C.)
as §2
The following are the amounts of the components of the reaction mixture that result in each of the 50 assay wells:
• 1) Prepare the reaction mix above by mixing the components and storing on ice. • 2) Pipet 14.5 μL of reaction mixture into each of 50 wells of a polystyrene U-bottom 96-well microtiter plate (Corning 25881-96) on ice. • 3) Add 1.7 μL of diluted compound to be tested to each well in a column of eight, including solvent control. Serial 3-fold dilutions from 1 mM (100 μM final) in assay buffer−urea=7 dilutions+zero. Each 96-well plate can therefore accommodate 11 samples+1 Congo Red control (0.039-5 μM final in 2-fold steps). • 4) Seal the plate with aluminum film and incubate for 10 minutes on ice. • 5) Raise the temperature to 37° C. and incubate for 3 to 5 hours (depends on the lot of the peptide). • 6) Remove the aluminum film and add 250 μL/well of 5 μM thioflavin T (ThT) [T-3516, Sigma-Aldrich] in 50 mM glycine-NaOH, pH 8.5. Read fluorescence on a plate reader (ex=440 nm/20 nm; em=485 nm/20 nm) within 5 minutes. BAPA (Beta-Amyloid Peptide Aggregation)

Aβ (1-40) peptide = molecular target: T2, Aβ (1-40) peptide (Homo sapiens, UniProt P05067); assay: BAPA (Beta-Amyloid Peptide Aggregation, pH 6.0, filtration); details: Aβ (1-40) 33 μM, pH 6.0, 2 to 4 hours at room temperature; replicate values; letter = synthetic lot
T2 construct: 10 μL 0.5 mg/mL Aβ (1-40) peptide in 20% HFIP
Method: Each 96-well plate can therefore accommodate 11 samples+1 Congo Red control (0.039-5 μM final in 2-fold steps). • 4) Seal the plate with aluminum film and incubate for 10 minutes on ice. • 5) Raise the temperature to 37° C. and incubate for 3 to 5 hours (depends on the lot of the peptide). • 6) Remove the aluminum film and add 250 μL/well of 5 μM thioflavin T (ThT) [T-3516, Sigma-Aldrich] in 50 mM glycine-NaOH, pH 8.5. […] The purpose of this assays is to provide a higher volume method of assaying the amount of beta amyloid aggregation using an endpoint assay based on filtration. In this assay, hexafluoroisopropanol (HFIP) is used to break down the initial amyloid peptide to a monomer state and use a concentration of 33 μM which is high enough so that aggregation will occur at pH 6.0 in several hours. Methods: […] Then, we incubate for 2 to 4 hours at room temperature. […] We wash the filter plate with 100 μL of the same phosphate buffer. Aggregation was detected on a Microbeta counter after impregnating the filters with Meltilex (1450-441) and is corrected for background.

Aβ (1-42) = molecular target: T3, Aβ (1-42) (Homo sapiens, UniProt P05067); assay: BATYM assay (Aβ (1-42) aggregation, Thioflavin T fluorescence); details: Aβ 1-42 final concentration 100 μM, 37° C., 1 day, letter = synthetic lot
T3 construct: Required Aβ (1-42) (California Peptide) was dried from its hexafluoroisopropanol (HFIP) stock solution; purchased California Peptide
Method: Required Aβ (1-42) (California Peptide) was dried from its hexafluoroisopropanol (HFIP) stock solution. The Aβ (1-42) was dissolved in dimethylsulfoxide (DMSO) and then mixed with phosphate buffered saline (PBS) (pH 7.4). The mixed Aβ (1-42) solution was filtered with a 0.2 μm Omnipore membrane syringe filter Millipore, Bedford, Mass.). The compound to be tested in DMSO (50 times concentrate) was put into each well (0.5 μL/well) of a 96-well plate. The Aβ (1-42) solution was added into each well (24.5 μL/well). The plate was centrifuged at 1,000 g for 5 minutes and incubated at 37° C. for 1 day (Aβ 1-42; final concentration 100 μM).
After incubation Thioflavin T (ThT) (30 μM) solution in glycine-NaOH buffer (pH 8.5, 50 mM) was added into each well (250 μL/well), fluorescence was measured (ex=440/20 nm, em=485/20 nm) using a fluorescence plate reader. The inhibitory activity was calculated as the reduction of fluorescence with the following formula: Inhibition (%)={(F(Aβ)−F(Aβ+compound)}/{F(Aβ)−[…]}×100
The IC50s were calculated by a curve fitting program using the following equation. The data were obtained from two different experiments in triplicate.
x=Concentration of tested compound (M),

[3] = 30 μM soluble Aβ(1-40) + 125I-labeled Aβ(1-40), 37° C., 3 to 5 hours, replicate values, letter = synthetic lot, ppt = precipitate, V-shaped = inhibition followed by precipitation
[4] = 30 μM soluble Aβ(1-40), 37° C., 3 to 5 hours, thioflavin T fluorescence, replicate values, letter = synthetic lot

T3 sequence (P05067 672-713 limits assumed): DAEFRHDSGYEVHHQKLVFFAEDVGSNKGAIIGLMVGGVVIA
T2 sequence (P05067 672-711 limits assumed): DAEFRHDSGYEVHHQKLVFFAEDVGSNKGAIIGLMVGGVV
T1 sequence (P05067 672-711 limits assumed): as above

Row | IC50 (Aβ (1-40) peptide) | IC50 (Aβ(1-40) [1]; [3]) | IC50 (Aβ (1-42)) | IC50 (Aβ(1-40) [2]; [4]) [µM] | Molecule | IC50 (Aβ(1-40) [1]) [µM] | IC50 (Aβ(1-40) [2])
1 |  | 15 µM (3×) and 18 µM | 7.17 µM |  | O=C(O)c1cc([N+](=O)[O-])c(-n2ccnc2)cc1Nc1ccc(CCCc2ccc(Cl)c(Cl)c2)cc1 [Example 8] |  | 
2 | > 60 µM and 43 µM |  | 31 µM and 34 µM |  | CCN(CC)c1ccc(CCCc2ccc(Nc3ccccc3C(=O)O)cc2)cc1 [Example 19, 2-{4-[3-(4-Diethylaminophenyl)propyl]phenylamino}benzoic acid] |  | 
3 |  | > 100 µM | 38.2 µM | 2 | O=C(O)c1ccccc1Nc1ccc(CCCc2ccc(N3CCCCC3)cc2)cc1 [Example 47, 2-{4-[3-(4-Piperidin-1-ylphenyl)propyl]phenylamino}benzoic acid] |  | 
4 |  | 85 µM | 39.1 µM | 0.8 | CCCNc1ccc(CCCc2ccc(Nc3ccccc3C(=O)O)cc2)cc1 [Example 51, 2-{4-[3-(4-Propylaminophenyl)propyl]phenylamino}benzoic acid] |  | 
5 |  | 75 µM | 36.5 µM | 0.5 | CCCNc1cccc(CCCc2ccc(Nc3ccccc3C(=O)O)cc2)c1 [Example 52, 2-{4-[3-(3-Propylaminophenyl)propyl]phenylamino}benzoic acid] |  | 
6 | 13 µM |  | 12 µM |  | Cc1ccc(CCc2ccc(Nc3ccc([N+](=O)[O-])cc3C(=O)O)cc2)cc1C [Example 61, 2-{4-[2-(3,4-Dimethyl-phenyl)-ethyl]-phenylamino}-5-nitro-benzoic acid] |  | 
7 | 9 µM and 47 µM and 29 µM | > 100 µM |  | > 100 | Cc1cc(-c2cc(Cl)cc(Cl)c2)ccc1Nc1ccccc1C(=O)O [Example 83, 2-(3′,5′-Dichloro-3-methyl-biphenyl-4-ylamino)-benzoic acid] |  | 
8 | 5 µM and 21 µM | > 100 µM |  | > 100 | Cc1cc(-c2cc(Br)cc(Br)c2)ccc1Nc1ccccc1C(=O)O [Example 84, 2-(3′,5′-Dibromo-3-methyl-biphenyl-4-ylamino)-benzoic acid] |  | 
9 | 8 µM and 77 µM and 45 µM | > 100 µM |  | 18 | Cc1cc(-c2ccc3c(c2)OCO3)ccc1Nc1ccccc1C(=O)O [Example 85, 2-(4-1,3-Benzodioxol-5-yl-2-methyl-phenylamino)-benzoic acid] |  | 
10 | > 10 µM and 89 µM and 37 µM | 40 µM |  | 18 | O=C(O)c1ccccc1Nc1ccc(-c2ccc(Cl)cc2Cl)c(Cl)c1 [Example 86, 2-(2,2′,4′-Trichloro-biphenyl-4-ylamino)-benzoic acid] |  | 
11 | > 10 µM and 15 µM and 32 µM | > 100 µM |  | 50 | O=C(O)c1ccccc1Nc1ccc(-c2ccc(F)c(F)c2)c(Cl)c1 [Example 87, 2-(2-Chloro-3′,4′-difluoro-biphenyl-4-ylamino)-benzoic acid] |  | 
12 | > 10 µM and 37 µM and 27 µM | > 100 µM |  | 10 | O=C(O)c1ccccc1Nc1ccc(-c2cccc(Br)c2)c(Cl)c1 [Example 88, 2-(3′-Bromo-2-chloro-biphenyl-4-ylamino)-benzoic acid] |  | 
13 |  | > 100 µM | > 100 µM |  | CN(c1ccc(CCc2ccc(Cl)c(Cl)c2)cc1)c1ccccc1C(=O)O [Example 148, 2-({4-[2-(3,4-Dichloro-phenyl)-ethyl]-phenyl}-methyl-amino)-benzoic acid] |  | 
14 |  | > 100 µM | 70.8 µM |  | O=C(O)c1ccccc1Nc1cccc(CCc2ccc(Cl)cc2)c1 [Example 154, 2-{3-[2-(4-Chlorophenyl)ethyl]phenylamino}-benzoic acid] |  | 
15 |  | > 100 µM | 44.6 µM | 3 | O=C(O)c1ccccc1Nc1cccc(CCCc2ccc(Cl)c(Cl)c2)c1 [Example 155, 2-{3-[3-(3,4-Dichlorophenyl)propyl]phenylamino}-benzoic acid] |  | 
16 |  |  | 27.8 µM |  | CCN(CC)c1ccc(CCCc2cccc(Nc3ccccc3C(=O)O)c2)cc1 [Example 156, 2-{3-[3-(4-Diethylaminophenyl)propyl]phenylamino}-benzoic acid] |  | 
17 |  |  | 25.9 µM |  | CCCN(CCC)c1ccc(CCCc2cccc(Nc3ccccc3C(=O)O)c2)cc1 [Example 157, 2-{3-[3-(4-Di-n-propylaminophenyl)propyl]phenylamino}-benzoic acid] |  | 

Row | Molecule | IC50 (Aβ (1-40) peptide) | IC50 (Aβ(1-40) [1]; [3]) | IC50 (Aβ (1-42)) | IC50 (Aβ(1-40) [2]; [4]) [µM] | IC50 (Aβ(1-40) [1]) [µM] | IC50 (Aβ(1-40) [2])
18 | 2-{4-[2-(3,4-Dichloro-phenyl)-ethyl]-phenylamino}-benzoate-2-hydroxy-1,1-bis hydroxymethyl-ethyl-ammonium [Example 120] | > 60 µM |  |  |  | > 100 | 3 µM
19 | O=C(O)c1ccccc1Nc1ccc(CCc2ccc(Cl)c(Cl)c2)cc1 [Example 1, 2-{4-[2-(3,4-Dichlorophenyl)ethyl]phenylamino}-benzoic acid] | > 60 µM and 11 µM and > 100 µM and 86 µM | > 100 µM (5×) and 52 µM and 10 µM | > 60 µM and 50 µM and 58.8 µM and 57.8 µM |  |  | 
20 | O=C(O)c1ccccc1Nc1ccc(CCc2ccc(Cl)c(Cl)c2)cc1 [Example 118, 2-{4-[2-(3,4-Dichloro-phenyl)-ethyl]-phenylamino}-benzoic acid monopotassium] | > 60 µM | > 100 µM |  | 6 |  | 
21 | O=C(O)c1ccccc1Nc1ccc(CCc2ccc(Cl)c(Cl)c2)cc1 [Example 119, 2-{4-[2-(3,4-Dichloro-phenyl)-ethyl]-phenylamino}-benzoic acid calcium salt (1:1)] | > 60 µM | > 100 µM |  |  |  | 3 µM
22 | O=C(O)c1cc(C(F)(F)F)ccc1Nc1ccc(CCc2ccc(Cl)c(Cl)c2)cc1 [Example 143, 2-{4-[2-(3,4-Dichlorophenyl)-ethyl]-phenylamino}-5-trifuoromethyl-benzoic acid] |  |  | > 100 µM |  | > 100 | 40 µM and 30 µM
